The numbers were not newly measured in patent publication US20200046664A1, “METHOD FOR PREPARATION OF LIQUID ORAL COMPOSITION OF L-THYROXIN” (FTF PHARMA PRIVATE LIMITED, priority 2016, published 2020), which cites them from elsewhere.

As to `N[C@@H](Cc1cc(I)c(Oc2cc(I)c(O)c(I)c2)c(I)c1)C(=O)[O-].[Na+]` [Levothyroxine sodium, Sodium (2S)-2-amino-3-[4-(4-hydroxy-3,5-diiodophenoxy)-3,5-diiodophenyl]propanoate], the “Solubility in ethanol (96 percent)” value (ethanol (96 percent)) is listed as “slightly soluble”. Where the note is “water”, the Solubility in water entry is “very slightly soluble”.
